Positions count from the first letter of the chain named.
What was measured:
[1] = target: T1, bovine serum albumin (BSA) (Bos taurus, UniProt P02769); experiment: bilirubin autofluorescence titration (excitation […] nm); assay type: binding
T1 construct: gene ALB

[2] = target: T2, PPARα (Mus musculus, UniProt P23204); experiment: bilirubin autofluorescence titration with purified His-PPARα; assay type: binding
T2 construct: gene Ppara; full-length histidine-tagged mouse PPARα
T2 sequence (P23204 1-468): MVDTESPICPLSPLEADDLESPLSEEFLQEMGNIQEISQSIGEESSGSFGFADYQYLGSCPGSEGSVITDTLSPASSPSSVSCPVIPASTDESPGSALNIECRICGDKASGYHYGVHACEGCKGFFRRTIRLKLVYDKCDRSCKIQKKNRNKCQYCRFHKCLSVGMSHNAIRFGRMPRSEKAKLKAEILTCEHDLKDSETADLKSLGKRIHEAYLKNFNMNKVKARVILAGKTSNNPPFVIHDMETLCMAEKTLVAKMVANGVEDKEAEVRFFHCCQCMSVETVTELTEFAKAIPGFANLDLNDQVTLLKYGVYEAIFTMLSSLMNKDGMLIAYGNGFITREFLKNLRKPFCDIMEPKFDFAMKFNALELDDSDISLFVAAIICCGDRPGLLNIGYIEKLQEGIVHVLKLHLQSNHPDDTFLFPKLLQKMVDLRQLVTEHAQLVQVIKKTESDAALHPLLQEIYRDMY

[3] = target: T3, PPARα (Mus musculus, UniProt P23204, T283G); experiment: bilirubin autofluorescence with purified mutant; binding reduced by […]
T3 construct: gene Ppara; full-length histidine-tagged mouse PPARα
T3 sequence (P23204 1-468 T283G): T2 sequence (P23204 1-468) with T283G

[4] = target: T4, PPARα (Mus musculus, UniProt P23204, A333G); experiment: as above
T4 construct: gene Ppara; full-length histidine-tagged mouse PPARα
T4 sequence (P23204 1-468 A333G): T2 sequence (P23204 1-468) with A333G

[5] = target: T1, bovine serum albumin (BSA); experiment: biliverdin autofluorescence dose-response (excitation […] nm); assay type: binding

T1 sequence (P02769 25-607): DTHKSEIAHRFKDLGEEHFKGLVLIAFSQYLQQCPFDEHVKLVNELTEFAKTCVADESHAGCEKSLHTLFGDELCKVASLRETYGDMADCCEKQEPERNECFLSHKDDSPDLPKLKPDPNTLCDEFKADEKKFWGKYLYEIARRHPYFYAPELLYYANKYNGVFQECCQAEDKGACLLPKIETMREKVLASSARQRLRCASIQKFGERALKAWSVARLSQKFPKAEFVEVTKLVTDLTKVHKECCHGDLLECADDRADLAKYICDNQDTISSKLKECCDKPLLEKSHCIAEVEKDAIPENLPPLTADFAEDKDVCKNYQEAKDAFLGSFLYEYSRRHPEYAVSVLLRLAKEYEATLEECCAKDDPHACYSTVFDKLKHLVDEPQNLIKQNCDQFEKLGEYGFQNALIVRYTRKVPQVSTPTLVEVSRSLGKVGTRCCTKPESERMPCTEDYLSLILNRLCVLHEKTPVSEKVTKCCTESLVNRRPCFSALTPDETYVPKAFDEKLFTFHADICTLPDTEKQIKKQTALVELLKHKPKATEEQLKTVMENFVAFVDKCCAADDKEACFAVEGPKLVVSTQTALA

| Compound | Kd [1] [µM] | Kd [2] [µM] | % reduction of binding [3] | % reduction of binding [4] | biliverdin autofluorescence dose-response (excitation 440 nm) [5] |
| --- | --- | --- | --- | --- | --- |
| C=CC1=C(C)/C(=C/c2[nH]c(Cc3[nH]c(/C=C4\NC(=O)C(C)=C4C=C)c(C)c3CCC(=O)O)c(CCC(=O)O)c2C)NC1=O [BR, bilirubin] | 11.1 | 5.13 | 11.4 % reduction of binding | 17.0 % reduction of binding |  |
| C=CC1=C(C)/C(=C/C2=NC(=C\c3[nH]c(/C=C4\NC(=O)C(C)=C4C=C)c(C)c3CCC(=O)O)/C(CCC(=O)O)=C2C)NC1=O [BV, biliverdin] |  |  |  |  | The results in Figure 1C show a dose-dependent increase in fluorescence for biliverdin bound to albumin |
